Data as given in article PMC3006138, “Fexinidazole – A New Oral Nitroimidazole Drug Candidate Entering Clinical Development for the Treatment of Sleeping Sickness” (PLoS Neglected Tropical Diseases, 2010).
Like-named read-outs stand apart in the source and are kept apart here.

How the values were obtained:
[1] = Hepatocyte intrinsic clearance and metabolite profile; format: in vitro ADME, rat; settings: male, Sprague Dawley, rat, cryopreserved hepatocytes, 1 µM
Method: (§1) Fexinidazole was incubated with cryopreserved hepatocytes from male CD-1 mice, male Sprague Dawley rats, male beagle dogs, male cynomolgus monkeys, and from pooled white or African-American human donor samples (purchased commercially), at concentrations of 1 µM and 10 µM. […] The incubated samples were analyzed by LC-MS after extraction into acetonitrile.
A quality control analysis of fexinidazole was performed via 1H-NMR in DMSO and LC- […]
provided by the Swiss Tropical Institute (Basel, Switzerland).
(§2) Reagents and solvents were of analytical grade and obtained from Sigma-Aldrich (St. Louis, […]
Cryopreserved hepatocytes from the male CD1 mouse, lot CSI; male Sprague Dawley rat, lot LPL; male beagle dog, lot BWX; male cynomolgus monkey, lot EHH; and pooled human samples, lot MJI, were purchased from In Vitro Technologies Inc (Baltimore, Maryland, […]
5.4. In vitro Incubations
(§3) On the day of the experiment a 10 mM stock solution of fexinidazole in DMSO was prepared and, within 3 hours, aliquots of this freshly prepared solution, after suitable dilution, were added to the incubation matrix, to reach fexinidazole final concentrations of 1 and 10 µM. The final percentage of DMSO was 0.01% in the incubation samples for the […]
On the day of experiment, the cryopreserved hepatocytes were thawed following the detailed instructions provided by the supplier.
The number of viable cells was determined using a Trypan Blue exclusion method.
5.4.1. Intrinsic Clearance Study […]
µM with mouse, rat, dog, monkey and human hepatocytes (300000 cells/mL for the mouse and 1 million cells/mL for the other species) in a final incubation volume of 0.75 mL […]
(§4) Incubations were performed in duplicate in a 48-well plate under shaking. Sampling was performed using an automatic liquid handling system (Multiprobe II EX, Packard). At 0, 1, 5, 10, 15, 20, 30, 60 and 120 minutes, 50 µL aliquots of the incubates were taken, then 80 µL of ice-cold acetonitrile and 20 µL of 1 µM warfarin in acetonitrile (internal standard) were added, and samples centrifuged at 2000 rpm for 20 min. The supernatant was analyzed by LC-MS/MS. […]
the medium alone at t = 0 and 120 minutes.
For the determination of phase I and phase II activity of hepatocytes, 7-ethoxycoumarin (7-EC) 1 µM, and 7-hydroxycoumarin (7-HC) 30 µM were used as positive controls and incubated under the same conditions as fexinidazole. Aliquots of incubates were taken at 0, 10, 20, 30, 60 and 120 minutes and processed as fexinidazole samples.
5.4.2. Metabolite Profile Study
For metabolite profiling, fexinidazole was incubated at a concentration of 10 µM with mouse, rat, dog, monkey and human hepatocytes (300000 cells/mL for the mouse and 1 million cells/mL for the other species) in a final incubation volume of 2 mL Leibovitz L-15 […]
Aliquots of the incubation samples were taken at t = 0, 30 and 120 minutes; the metabolism was stopped by the addition of an equal volume of cold acetonitrile and the samples centrifuged at 1500 rpm for 20 min. The supernatant was stored at -20°C until analysis. Control incubations were performed with the compound in the medium alone […]
5.5. Analysis of Samples for Intrinsic Clearance Determination
(§5) The analysis of the samples for intrinsic clearance determination was performed by an LC-MS/MS method, using the following conditions:
(§6) HPLC Equipment and Conditions
HPLC system Agilent 1100 binary pump (Agilent, Palo Alto, USA)
Autosampler CTC Pal (Alfatech, San Jose, USA)
(§7) Analytical column Guard Column SB-C8 4.6 x 12.5 mm, 5 µm (Zorbax)
(§8) Column temperature ambient
(§9) Mobile phase A 10 mM ammonium formate pH 4.0: acetonitrile (95:5, v:v)
(§10) Mobile phase B 10 mM ammonium formate pH 4.0: acetonitrile (5:95, v:v) […]
(§11) Gradient conditions Step Total time (min) flow (µL/min) %A % B […]
MS Equipment and Conditions
Mass spectrometer API 4000 Triple Quadrupole (MDS-Sciex, Toronto, […]
Source Turbo Ion Spray (TIS)
Ion mode Positive for fexinidazole and 7-EC.
Negative for 7-HC, 7-HC sulphate and 7-HC glucuronide.

[2] = as above; format: in vitro ADME, human; settings: human
Method: as §1
Fexinidazole sulfoxide, lot 1106-I-0170, 99.3% purity, and fexinidazole sulfone, lot 1106-I-0171, 99.9% purity, were provided by the Sponsor.
Cryopreserved hepatocytes of five single donors, lots EHI, REL, KSE […]
ZIJ and MRS, were purchased from In Vitro Technologies Inc (Baltimore, Maryland, USA).
The certificates of analysis are reported in Appendix 1.
as §2
7.5. In Vitro Incubations
as §3
The cryopreserved hepatocytes were thawed according to the supplier’s procedure and the number of viable cells was determined using the Trypan Blue exclusion method. Viabilities were 92% for lot EHI, 89% for lot REL, 82% for lot KSE, 86% for lot ZIJ and 86% for lot MRS in the intrinsic clearance study. In the metabolite profile study viabilities were 91% for lot EHI, 90% for lot REL, 85% for lot KSE, 84% for lot ZIJ and 87% for lot MRS.
Afterwards, the same amount of viable cells for each donor were pooled and used for the incubations of fexinidazole.
7.5.1. Intrinsic Clearance Study […]
as §4, with “µM with pooled human hepatocytes (1 million cells/mL) in a final incubation volume of 1 mL Leibovitz L-15 medium, at 37°C. Incubations” for “Incubations”
The chemical stability of fexinidazole was checked by incubating the compound at 37°C in the medium alone at t = 0 and 120 minutes.
For the determination of phase I and phase II activities of hepatocytes, 7-ethoxycoumarin (7-ETC) 1 µM, and 7-hydroxycoumarin (7-HC) 30 µM were used as positive controls and incubated under the same conditions as fexinidazole. Aliquots of incubates were taken at 0, 1, 5, 10, 15, 20, 30, 60 and 120 minutes and processed as fexinidazole samples.
7.5.2. Metabolite Profile Study
For metabolite profiling, fexinidazole was incubated at a concentration of 10 µM with pooled human hepatocytes (1 million cells/mL) in a final incubation volume of 2 mL Leibovitz L-15 medium, at 37°C. Aliquots of the incubation samples were taken at t = 0, 30 and 120 minutes; the metabolism was stopped by the addition of an equal volume of cold acetonitrile and the samples centrifuged at 1100 rpm for 20 min. The supernatant was stored at -20°C until analysis. Control incubations were performed with the compound in the medium alone for 120 minutes.
7.6. Analysis of the Samples of Intrinsic Clearance Study
as §5, §6
HPLC system 1100 binary pump (Agilent, Palo Alto, USA)
Autosampler 2777 (Waters)
as §7, §8, §9, §10, §11

Question: What does the source list for `CSc1ccc(OCc2ncc([N+](=O)[O-])n2C)cc1` [Fexinidazole, 1-methyl-2-((p-(methylthio)phenoxy)methyl)-5-nitroimidazole]?
Answer: half-life at 1 µM [1]: 1.2 min; CLint scaled at 1 µM ([1]; read-out: CLint in vitro): > 3000 mL/min/kg; hepatocyte CLint at 1 µM ([1]; read-out: CLint in vitro): 602 µL/min/1e6 cells; half-life at 1 µM [2]: 6.5 min; CLint scaled at 1 µM ([2]; read-out: CLint in vitro): 257 mL/min/kg; hepatocyte CLint at 1 µM ([2]; read-out: CLint in vitro): 107 µL/min/1e6 cells
